From ChEMBL document CHEMBL1268945, “Sequential cytotoxicity: a theory examined using a series of 3,5-bis(benzylidene)-1-diethylphosphono-4-oxopiperidines and related phosphonic acids” (Bioorg Med Chem Lett, 2010) come the findings set out here.

In data set [1] the test system is HSC-2. Description: Cytotoxicity against human HSC2 cells. It counts as functional.
Data set [2] is described as follows: Cytotoxicity against human HPLF cells. It counts as cell-based.
Data set [3] is described as follows: Cytotoxicity against human HPC cells. It counts as cell-based.
Data set [4] has as its system HL-60. The data set is described as follows: Selectivity index, ratio of CC50 for normal cells to CC50 for human HL60 cells. It counts as functional.
In data set [5] the test system is HSC-4. The data set is described as follows: Selectivity index, ratio of CC50 for normal cells to CC50 for human HSC4 cells. It counts as functional.
Data set [6] has as its system HL-60. Description: Cytotoxicity against human HL60 cells. In kind it is functional.
The subject of data set [7] is HSC-4. Description: Cytotoxicity against human HSC4 cells. In kind it is functional.
Data set [8] is described as follows: Cytotoxicity against human HGF cells. It counts as cell-based.
Data set [9] concerns HSC-3. Description: Selectivity index, ratio of CC50 for normal cells to CC50 for human HSC3 cells. It counts as functional.
Data set [10] has as its system HSC-3. Description: Cytotoxicity against human HSC3 cells. It counts as functional.
The subject of data set [11] is HSC-2. Description: Selectivity index, ratio of CC50 for normal cells to CC50 for human HSC2 cells. In kind it is functional.

In the case of `CCOP(=O)(OCC)N1C/C(=C\c2ccc(Cl)cc2)C(=O)/C(=C/c2ccc(Cl)cc2)C1`, the CC50 (commonly the concentration giving 50% cytotoxicity) in the data set on HSC-2 [1] came to 1500 nM; in data set [2] it was 4.8 µM; in data set [3] it was 2800 nM; with HL-60 [6], 600 nM; in the data set with HSC-4 [7] it was 640 nM; in [8], 4.3 µM. In addition, the CC50 in the data set with HSC-3 [10] amounted to 2000 nM. The “Selectivity Index” value in the data set with HL-60 [4] is listed as 6.7; in the data set on HSC-4 [5] it was 6.3; with HSC-3 [9], 2; in the data set on HSC-2 [11] it was 2.7.

For `CCOP(=O)(OCC)N1C/C(=C\c2ccc([N+](=O)[O-])cc2)C(=O)/C(=C/c2ccc([N+](=O)[O-])cc2)C1`, the CC50 in the data set on HSC-2 [1] was determined as 330 nM; in data set [2] it was 2.2 µM; in [3], 1900 nM; in the data set on HL-60 [6], 140 nM; with HSC-4 [7], 720 nM; in data set [8] it was 3.1 µM. In addition, in the data set on HSC-3 [10], half-maximal cytotoxicity (CC50) was put at 380 nM. The “Selectivity Index” value with HL-60 [4] is recorded as 17; in the data set on HSC-4 [5] it was 3.3; in the data set with HSC-3 [9], 6.3; with HSC-2 [11], 7.3.

With `CCOP(=O)(OCC)N1C/C(=C\c2cccc([N+](=O)[O-])c2)C(=O)/C(=C/c2cccc([N+](=O)[O-])c2)C1`, the CC50 with HSC-2 [1] was 760 nM; in data set [2], 3.9 µM; in data set [3], 1500 nM; with HL-60 [6], 50 nM; in the data set on HSC-4 [7], 260 nM; in data set [8], 2.2 µM. The compound further showed a CC50 in the data set on HSC-3 [10] of 740 nM. Moreover, the “Selectivity Index” value in the data set with HL-60 [4] is recorded as 54; in the data set with HSC-4 [5], 9.6; with HSC-3 [9], 3.4; in the data set on HSC-2 [11] it was 3.3.

Turning to `COc1ccc(/C=C2\CN(P(=O)(O)O)C/C(=C\c3ccc(OC)cc3)C2=O)cc1`, the CC50 amounted to 1700 nM in the data set on HSC-2 [1]; 44 µM in data set [2]; 54000 nM in [3]; 5600 nM in the data set with HL-60 [6]; 3900 nM with HSC-4 [7]; 107 µM in data set [8]. For the same compound, half-maximal cytotoxicity in the data set with HSC-3 [10] (CC50) was put at 2200 nM. For the same compound, the “Selectivity Index” value with HL-60 [4] was 12; in the data set on HSC-4 [5], 17; in the data set on HSC-3 [9], 31; in the data set with HSC-2 [11], 40.

Consider `O=C1/C(=C/c2cccc([N+](=O)[O-])c2)CN(P(=O)(O)O)C/C1=C\c1cccc([N+](=O)[O-])c1`, for which the CC50 was found to be 200 nM with HSC-2 [1]; 3.3 µM in data set [2]; 2200 nM in [3]; 90 nM in the data set with HL-60 [6]; 140 nM with HSC-4 [7]; 2.3 µM in [8]. This compound also gave a CC50 in the data set on HSC-3 [10] of 180 nM. Also, the “Selectivity Index” value is listed as 30 in the data set with HL-60 [4], 19 with HSC-4 [5], 14 with HSC-3 [9] and 13 in the data set with HSC-2 [11].

Take `COc1cc(/C=C2\CN(P(=O)(O)O)C/C(=C\c3cc(OC)c(OC)c(OC)c3)C2=O)cc(OC)c1OC`: the CC50 turned out to be 130 nM in the data set on HSC-2 [1]; 1 µM in data set [2]; 590 nM in data set [3]; 60 nM in the data set on HL-60 [6]; 120 nM in the data set on HSC-4 [7]; 0.88 µM in [8]. The compound further returned a CC50 with HSC-3 [10] of 270 nM. The “Selectivity Index” value with HL-60 [4] came out at 12; with HSC-4 [5], 6.7; in the data set with HSC-3 [9] it was 3; in the data set on HSC-2 [11] it was 6.2.

Turning to `CCOP(=O)(OCC)N1C/C(=C\c2ccc(C)cc2)C(=O)/C(=C/c2ccc(C)cc2)C1`, the CC50 with HSC-2 [1] was 4900 nM; in data set [2], 21 µM; in data set [3] it was 18000 nM; with HL-60 [6], 3300 nM; with HSC-4 [7], 4600 nM; in [8], 28 µM. Also, in the data set with HSC-3 [10], the midpoint of cytotoxicity, the CC50, lay at 4100 nM. Besides, the “Selectivity Index” value in the data set with HL-60 [4] amounted to 6.7; with HSC-4 [5], 4.8; in the data set on HSC-3 [9], 5.4; with HSC-2 [11] it was 4.5.
